Consider eleven compounds from patent publication US11648254B2 (Kumquat Biosciences Inc., priority 2021, dated 2023).

Like-named read-outs stand apart in the source and are kept apart here.

The nature of data set [1]: In vitro plasma protein binding (PPB). The data set is classed as in vitro ADME. Conditions: percentage of free/unbound compound.
The next data set deals with SOS1 (Homo sapiens (Human), UniProt Q07889). Nature of the data set: Ras-SOS interaction assay (HTRF). The data set is classed as biochemical. For orientation: In TR-FRET formats the signal depends on donor and acceptor labels being close together.
Data set [2] has as its system MIA PaCa-2 cells (K-Ras G12C). Nature of the data set: Ras-SOS cellular growth inhibition assay (CellTiter-Glo, 3D). The data set is classed as cell-based. Conditions: Homo sapiens. In outline:
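Growth read by CellTiter-Glo luminescence about 5 days after dosing with 3-fold dilutions (9 points), added one day post-seeding. Cells: MIA PaCa-2, 3D culture on ultra-low-attachment surface, medium DMEM/Ham's F12 plus 10% FCS and 2.5% horse serum; IC50 by four-parameter fit.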
On the technique in general: ATP-based viability assays read luminescence as a measure of living cells.

Data set [3] deals with ERK phosphorylation (p-ERK 1/2 Thr202/Tyr204) in MIA PaCa-2 or NCI-H1975 cells. Nature of the data set: ERK phosphorylation assay (AlphaLISA p-ERK 1/2). Type of data set: cell-based. Conditions: MIA PaCa-2 cells or EGFR mutant NCI-H1975 cells; read-out: IC50 for the inhibition of ERK phosphorylation. The method, then: MIA PaCa-2 cells (ATCC CRL-1420) expressing K-Ras G12C is grown in DMEM/Ham's F12 medium supplemented with 10% fetal calf serum, glutamine and ˜2.5% horse serum. Alternatively, other cell lines with aberrant Ras signaling output can be utilized. Non-limiting exemplary cell lines include NCI-H358 and H1975. Cells are plated in 96-well plates at a concentration of 40,000 cells/well and allowed to attach for at least 8 hours. Following, diluted solutions of test inhibitor compounds are added to the cell culture. After ˜2 hours of incubation, the medium is removed and lysis buffer from AlphaLISA® SureFire® Ultra™ p-ERK 1/2 (Thr202/Tyr204) assay kit (Perkin Elmer ALSU-PERK-A10K) is added to the cells. The plate is agitated for 10 min at room temperature and 10 μL of the lysate is transferred to a 384-well Optiplate™ (Perkin Elmer) for assay. Thereafter ˜5 μL of Acceptor Mix from the p-ERK AlphaLISA assay kit is added to wells and plate is sealed with adhesive film. The samples are incubated for one hour at room temperature. Following, 5 μL of Donor Mix is added to the wells and plate is re-sealed with adhesive film, and incubated for one hour at room temperature. The plate is then read on a multimode microplate reader (e.g., SPARK©Tecan) equipped with Alpha detection module. The data can be fitted to four-parameter dose-response curve using Prism version 9 (GraphPad) to calculate an IC50 for the inhibition of ERK phosphorylation. […] 355, 332, 366, 216, 264, 356, 266, in an ERK phosphorylation assay utilizing either MIA PaCa-2 cells (ATCC CRL-1420) or EGFR mutant cell line (NCI-H1975 (ATCC CRL-5908)).
On the technique in general: Alpha assays give light when donor and acceptor beads are brought close together.

Data set [4] concerns NCI-H1975 cells (EGFR T790M L858R). Nature of the data set: EGFR-SOS cellular inhibition assay (CellTiter-Glo, 3D). Type of data set: cell-based. Conditions: Homo sapiens.
Data set [5] in a line: Metabolic (microsomal) stability assay. Type of data set: in vitro ADME. The following applies: mouse liver microsomes, T1/2; read-out: DMPK-invitro-metabolic Stability (Mouse T1/2). An excerpt: Example 12: Metabolic (Microsomal) Stability Assay
Where [6] appears, read: K-RasG13D utilized, read-out: IC50 inhibition of SOS.
The mark [7] stands for this setting: K-RasG13D, read-out: IC50 value against SOS1.
The mark [8] stands for this setting: MIA PaCa-2, 120 h, MIA PaCa-2, 3D proliferation, about 5 days, read-out: Bio-Cell-Prolif-3D (MiaPaca2 IC50).
[9] abbreviates: MIA PaCa-2, MIA PaCa-2, read-out: IC50 in inhibiting MIA PaCa-2 cell growth.
Setting [10] is: 120 h, NCI-H1975, 3D proliferation, about 5 days, read-out: Bio-Cell-Prolif-3D (H1975 IC50).
[11] abbreviates: NCI-H1975, EGFR T790M L858R, read-out: IC50 in inhibiting growth of NCI-H1975 cell line.

Chain of SOS1 (Q07889 564-1049): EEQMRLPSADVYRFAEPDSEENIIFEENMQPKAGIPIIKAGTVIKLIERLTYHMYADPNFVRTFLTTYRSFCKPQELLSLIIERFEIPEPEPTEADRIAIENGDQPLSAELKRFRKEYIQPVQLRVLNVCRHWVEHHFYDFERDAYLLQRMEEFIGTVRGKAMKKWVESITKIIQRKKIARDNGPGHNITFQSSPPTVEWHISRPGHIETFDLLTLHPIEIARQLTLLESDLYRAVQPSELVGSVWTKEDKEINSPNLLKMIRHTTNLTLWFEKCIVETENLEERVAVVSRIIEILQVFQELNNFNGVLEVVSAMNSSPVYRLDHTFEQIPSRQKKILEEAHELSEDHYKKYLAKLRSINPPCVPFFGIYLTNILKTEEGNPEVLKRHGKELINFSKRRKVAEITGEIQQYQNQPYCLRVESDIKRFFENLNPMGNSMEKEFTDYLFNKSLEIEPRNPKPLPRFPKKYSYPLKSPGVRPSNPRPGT

Regarding `COc1nc2ncnc(N[C@H](C)c3cccc(C(F)(F)C(C)(C)O)c3)c2cc1C1(C#N)CC1` [Compound 355, (R)-1-(4-((1-(3-(1,1-difluoro-2-hydroxy-2-methylpropyl)phenyl)ethyl)amino)-7-methoxypyrido[2,3-d]pyrimidin-6-yl)cyclopropane-1-carbonitrile], the “DMPK-invitro-PPB (Mouse Unbound) [%]” value in data set [1] came to 0.89%. In addition, the IC50 was less than 100 nM on SOS1 (setting [6]); less than 50 nM on SOS1 (setting [7]); not above 1000 nM in data set [2] (setting [8]); less than 500 nM in data set [2] (setting [9]); less than 1000 nM in data set [3]; not above 1000 nM in data set [4] (setting [10]). Besides, in data set [4] (setting [11]), the IC50 is less than 500 nM. For the same compound, in data set [5], the half-life is more than 3.33 h.
With `COc1nc2ncnc(N[C@H](C)c3cccc(C(F)(F)[C@H](C)O)c3)c2cc1C1(C#N)CC1` [Compound 266, 1-(4-(((R)-1-(3-((S)-1,1-difluoro-2-hydroxypropyl)phenyl)ethyl)amino)-7-methoxypyrido[2,3-d]pyrimidin-6-yl)cyclopropane-1-carbonitrile], the IC50 on SOS1 (setting [6]) is less than 100 nM; on SOS1 (setting [7]), less than 50 nM; in data set [2] (setting [8]), not above 1000 nM; in data set [2] (setting [9]), less than 500 nM; in data set [3] it was less than 1000 nM; in data set [4] (setting [10]), not above 1000 nM. Also, in data set [4] (setting [11]), the IC50 was less than 500 nM.
On to `COc1nc2nc(C)nc(N[C@H](C)c3cccc(C(F)(F)[C@H](C)O)c3)c2cc1C1(C#N)CC1` [Compound 216, 1-(4-(((R)-1-(3-((S)-1,1-difluoro-2-hydroxypropyl)phenyl)ethyl)amino)-7-methoxy-2-methylpyrido[2,3-d]pyrimidin-6-yl)cyclopropane-1-carbonitrile], for which the IC50 at SOS1 (setting [6]) is less than 100 nM; at SOS1 (setting [7]), less than 50 nM; in data set [2] (setting [8]), not above 1000 nM; in data set [2] (setting [9]) it was less than 500 nM; in data set [3], less than 1000 nM; in data set [4] (setting [10]), not above 1000 nM. In data set [4] (setting [11]), the IC50 is less than 500 nM.
As for `COc1nc2nc(C)nc(N[C@H](C)c3cccc(C(F)(F)[C@@H](C)O)c3)c2cc1C1(C#N)CC1` [Compound 366, 1-(4-(((R)-1-(3-((R)-1,1-difluoro-2-hydroxypropyl)phenyl)ethyl)amino)-7-methoxy-2-methylpyrido[2,3-d]pyrimidin-6-yl)cyclopropane-1-carbonitrile], the “DMPK-invitro-PPB (Mouse Unbound) [%]” value in data set [1] is 1.32%. Further, the IC50 was less than 100 nM at SOS1 (setting [6]); less than 50 nM on SOS1 (setting [7]); not above 1000 nM in data set [2] (setting [8]); less than 500 nM in data set [2] (setting [9]); less than 1000 nM in data set [3]; not above 1000 nM in data set [4] (setting [10]). In addition, the concentration for half-maximal inhibition (IC50) in data set [4] (setting [11]) was less than 500 nM. In addition, the half-life in data set [5] was found to be 0.428 h.
With `COc1nc2nc(C)nc(N[C@H](C)c3cccc(C(F)(F)[C@H](C)O)c3F)c2cc1C1(C#N)CC1` [Compound 256, 1-(4-(((R)-1-(3-((S)-1,1-difluoro-2-hydroxypropyl)-2-fluorophenyl)ethyl)amino)-7-methoxy-2-methylpyrido[2,3-d]pyrimidin-6-yl)cyclopropane-1-carbonitrile], the “DMPK-invitro-PPB (Mouse Unbound) [%]” value in data set [1] is recorded as 0.77%. Moreover, the concentration for half-maximal inhibition (IC50) on SOS1 (setting [6]) is less than 100 nM; at SOS1 (setting [7]) it was less than 50 nM; in data set [2] (setting [8]), not above 1000 nM; in data set [2] (setting [9]), less than 500 nM; in data set [4] (setting [10]), not above 1000 nM; in data set [4] (setting [11]) it was less than 500 nM. The half-life in data set [5] came out at 0.62 h.
As to `COc1nc2ncnc(N[C@H](C)c3cccc(C(F)(F)[C@@H](C)O)c3)c2cc1C1(C#N)CC1` [Compound 264, 1-(4-(((R)-1-(3-((R)-1,1-difluoro-2-hydroxypropyl)phenyl)ethyl)amino)-7-methoxypyrido[2,3-d]pyrimidin-6-yl)cyclopropane-1-carbonitrile], in data set [1], the “DMPK-invitro-PPB (Mouse Unbound) [%]” value worked out at 4.94%. Besides, the IC50 at SOS1 (setting [6]) was less than 100 nM; on SOS1 (setting [7]), less than 50 nM; in data set [2] (setting [8]), not above 1000 nM; in data set [2] (setting [9]), less than 500 nM; in data set [3], less than 1000 nM; in data set [4] (setting [10]) it was not above 1000 nM. In addition, in data set [4] (setting [11]), the IC50 is less than 500 nM. In addition, in data set [5], the half-life amounted to 0.918 h.
For the compound `COc1nc2ncnc(N[C@H](C)c3cccc(C(F)(F)C(C)(C)O)c3F)c2cc1C1(C#N)CC1` [Compound 356, (R)-1-(4-((1-(3-(1,1-difluoro-2-hydroxy-2-methylpropyl)-2-fluorophenyl)ethyl)amino)-7-methoxypyrido[2,3-d]pyrimidin-6-yl)cyclopropane-1-carbonitrile], in data set [1], the “DMPK-invitro-PPB (Mouse Unbound) [%]” value is given as 0.48%. Besides, the IC50 at SOS1 (setting [6]) is less than 100 nM; on SOS1 (setting [7]), less than 50 nM; in data set [2] (setting [8]) it was not above 1000 nM; in data set [2] (setting [9]), less than 500 nM; in data set [3], less than 1000 nM; in data set [4] (setting [10]), not above 1000 nM. Moreover, the IC50 in data set [4] (setting [11]) is less than 500 nM. The half-life in data set [5] was more than 3.33 h.
Regarding `COc1nc2nc(C)nc(N[C@H](C)c3cccc(C(F)(F)C(C)(C)O)c3)c2cc1C1(C#N)CC1` [Compound 175, (R)-1-(4-((1-(3-(1,1-difluoro-2-hydroxy-2-methylpropyl)phenyl)ethyl)amino)-7-methoxy-2-methylpyrido[2,3-d]pyrimidin-6-yl)cyclopropane-1-carbonitrile], the “DMPK-invitro-PPB (Mouse Unbound) [%]” value in data set [1] amounted to 0.11%. The IC50 at SOS1 (setting [6]) was less than 100 nM; on SOS1 (setting [7]) it was less than 50 nM; in data set [2] (setting [8]) it was not above 1000 nM; in data set [2] (setting [9]) it was less than 500 nM; in data set [4] (setting [10]), not above 1000 nM; in data set [4] (setting [11]), less than 500 nM. Besides, in data set [5], the half-life came to 3.31 h.
For the compound `COc1nc2ncnc(N[C@H](C)c3cccc(C(F)(F)[C@H](C)O)c3F)c2cc1C1(C#N)CC1` [Compound 327, 1-(4-(((R)-1-(3-((S)-1,1-difluoro-2-hydroxypropyl)-2-fluorophenyl)ethyl)amino)-7-methoxypyrido[2,3-d]pyrimidin-6-yl)cyclopropane-1-carbonitrile], in data set [1], the “DMPK-invitro-PPB (Mouse Unbound) [%]” value is recorded as 2.34%. For the same compound, the IC50 at SOS1 (setting [6]) was less than 100 nM; on SOS1 (setting [7]), less than 50 nM; in data set [2] (setting [8]), not above 1000 nM; in data set [2] (setting [9]), less than 500 nM; in data set [4] (setting [10]), not above 1000 nM; in data set [4] (setting [11]) it was less than 500 nM. Besides, in data set [5], the half-life turned out to be 2.18 h.
With `C[C@@H](Nc1ncnc2nc(Cl)c(C3(C#N)CC3)cc12)c1cccc(C(F)(F)F)c1F` [Compound 354, (R)-1-(7-chloro-4-((1-(2-fluoro-3-(trifluoromethyl)phenyl)ethyl)amino)pyrido[2,3-d]pyrimidin-6-yl)cyclopropane-1-carbonitrile], the “DMPK-invitro-PPB (Mouse Unbound) [%]” value in data set [1] is recorded as 0.52%. Further, the 50% inhibitory concentration (IC50) on SOS1 (setting [6]) is less than 100 nM; in data set [2] (setting [8]) it was not above 1000 nM; in data set [2] (setting [9]), less than 500 nM; in data set [4] (setting [10]), not above 1000 nM; in data set [4] (setting [11]), less than 500 nM. In data set [5], the half-life is more than 3.33 h.
On to `COc1nc2ncnc(N[C@H](C)c3cccc(C(F)(F)[C@@H](C)O)c3F)c2cc1C1(C#N)CC1` [Compound 329, 1-(4-(((R)-1-(3-((R)-1,1-difluoro-2-hydroxypropyl)-2-fluorophenyl)ethyl)amino)-7-methoxypyrido[2,3-d]pyrimidin-6-yl)cyclopropane-1-carbonitrile], for which the “DMPK-invitro-PPB (Mouse Unbound) [%]” value in data set [1] was 2.72%. For the same compound, the IC50 was less than 100 nM on SOS1 (setting [6]); less than 50 nM on SOS1 (setting [7]); not above 1000 nM in data set [2] (setting [8]); less than 500 nM in data set [2] (setting [9]); not above 1000 nM in data set [4] (setting [10]); less than 500 nM in data set [4] (setting [11]). In addition, the half-life in data set [5] amounted to 2 h.

By IC50 is commonly meant the midpoint of a concentration-inhibition curve.
